The source of these data is US8513433B2, “Small molecule inhibitors of PARP activity” (Angion Biomedica Corp., priority 2009, dated 2013).

One assay relates to rat. Conditions: 45 minutes ischemia, up to six hours reperfusion; drug one minute before reperfusion; cited from earlier work.
The target of a further assay is T1, human PARP-1 (Homo sapiens, UniProt P09874).
T1 construct: purchased Trevigen Inc., Gaithersburg, Md
Kind of assay: Poly (ADP-Ribose) Polymerase-1 (PARP-1) in vitro enzyme assay (Universal Colorimetric PARP Assay Kit). In kind it is biochemical. Conditions: letter codes; read-out: extent of inhibition of PARP activity (IC50, micromolar). The text has this:
Poly (ADP-Ribose) Polymerase-1 (PARP-1) In Vitro Enzyme Assay: Compounds can be screened for inhibitory activity against human PARP-1 in vitro using the Universal Colorimetric PARP Assay Kit (Trevigen Inc., Gaithersburg, Md.) as directed by the supplier. Compounds can be assayed in duplicate in 0.5% DMSO final concentration, negative control is no enzyme, while positive control is DMSO vehicle alone. IC50 determinations can be made using Microsoft Excel. For all cell assays, compounds can be added to cells in 5% DMSO/PBS for a final concentration of 0.5% DMSO.

For a further assay, the system named is rats. Particulars: hemorrhagic shock and resuscitation; cited from earlier work.
The subject of a further assay is mouse. Particulars: mouse arthritis; inflammatory cell infiltration, hyperplasia of the synovium, tissue necrosis; cited from earlier work.
In the next assay the test system is Mice. Conditions: eleven minutes aortic ischemia, 48 hours reperfusion, cited from earlier work.
The test system of the next assay is PARP-1. Conditions: agent alone; cited from earlier work.
In assay [1] the test system is vascular smooth muscle cells in tumors. Particulars: cited from earlier work.

pIC50: −log10 of the molar value.

T1 sequence (P09874 whole entry): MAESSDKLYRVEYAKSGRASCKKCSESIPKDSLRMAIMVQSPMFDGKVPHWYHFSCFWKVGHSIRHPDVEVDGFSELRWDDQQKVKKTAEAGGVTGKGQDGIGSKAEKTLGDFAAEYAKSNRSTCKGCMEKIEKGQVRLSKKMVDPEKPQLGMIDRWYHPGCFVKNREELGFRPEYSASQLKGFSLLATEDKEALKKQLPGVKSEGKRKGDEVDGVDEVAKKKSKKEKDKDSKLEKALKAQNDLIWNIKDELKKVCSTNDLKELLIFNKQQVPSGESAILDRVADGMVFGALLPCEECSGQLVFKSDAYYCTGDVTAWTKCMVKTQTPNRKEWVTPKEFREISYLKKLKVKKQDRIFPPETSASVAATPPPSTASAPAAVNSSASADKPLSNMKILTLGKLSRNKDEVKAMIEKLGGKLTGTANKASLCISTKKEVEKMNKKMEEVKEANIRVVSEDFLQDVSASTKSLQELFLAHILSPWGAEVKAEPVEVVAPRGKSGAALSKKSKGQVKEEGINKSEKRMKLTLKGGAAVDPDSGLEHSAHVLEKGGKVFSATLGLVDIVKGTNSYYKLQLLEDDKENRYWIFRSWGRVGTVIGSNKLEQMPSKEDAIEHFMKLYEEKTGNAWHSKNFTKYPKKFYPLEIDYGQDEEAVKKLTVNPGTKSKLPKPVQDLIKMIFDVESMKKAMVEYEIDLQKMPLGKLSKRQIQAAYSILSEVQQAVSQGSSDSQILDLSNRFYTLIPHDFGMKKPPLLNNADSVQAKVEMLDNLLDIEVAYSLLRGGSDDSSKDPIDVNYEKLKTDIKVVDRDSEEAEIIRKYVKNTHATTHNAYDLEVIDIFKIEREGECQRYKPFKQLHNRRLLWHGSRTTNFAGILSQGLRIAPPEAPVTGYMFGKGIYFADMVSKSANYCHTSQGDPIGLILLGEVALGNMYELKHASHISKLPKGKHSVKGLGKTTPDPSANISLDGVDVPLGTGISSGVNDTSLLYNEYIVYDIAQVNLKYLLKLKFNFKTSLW

Regarding `Oc1cccc2c(O)nccc12` [1,5-dihroxyisoquinoline], the “kidney function (plasma urea, plasma creatinine, glomerular filtration rate)” value in the assay with rat is recorded as “improved kidney function”.
As to `NC(=O)c1cccc2[nH]c(C3NCCc4ccccc43)nc12` (stereo not shown) [2-(1,2,3,4-Tetrahydroisoquinolin-1-yl)-1H-benzo[d]imidazole-4-carboxamide], the pIC50 on human PARP-1 is over 6.30.
Regarding `NC(=O)c1cccc2[nH]c(C3Cc4ccccc4CN3)nc12` (stereo not shown) [2-(1,2,3,4-Tetrahydroisoquinolin-3-yl)-1H-benzo[d]imidazole-4-carboxamide], at human PARP-1, the pIC50 is over 6.30.
In the case of `NC(=O)c1cccc2[nH]c(C3CCc4ccccc4N3)nc12` (stereo not shown) [2-(1,2,3,4-Tetrahydroquinolin-2-yl)-1H-benzo[d]imidazole-4-carboxamide], on human PARP-1, the pIC50 is over 6.30.
For the compound `CC1(c2nc3c(C(N)=O)cccc3[nH]2)Cc2ccccc2CN1` (stereo not shown) [2-(3-Methyl-1,2,3,4-tetrahydroisoquinolin-3-yl)-1H-benzo[d]imidazole-4-carboxamide], the pIC50 on human PARP-1 was over 6.30.
As for `NC(=O)c1cccc2[nH]c(C3Cc4ccc(N)cc4CN3)nc12` (stereo not shown) [2-(7-Amino-1,2,3,4-tetrahydroisoquinolin-3-yl)-1H-benzo[d]imidazole-4-carboxamide], on human PARP-1, the pIC50 is over 6.30.
With `NC(=O)c1cccc2[nH]c(C3Cc4ccccc4N3)nc12` (stereo not shown) [2-(Indolin-2yl)-1H-benzo[d]imidazole-4-carboxamide], on human PARP-1, the pIC50 was over 6.30.
Same read-out and setting: then `NC(=O)c1cccc2[nH]c(C3NCc4ccccc43)nc12` (stereo not shown) [2-(Isoindolin-1-yl)-1H-benzo[d]imidazole-4-carboxamide], with over 6.30.
Turning to `NC(=O)c1cccc(N)c1` [3-aminobenzamide], the “kidney function (plasma urea, plasma creatinine, glomerular filtration rate)” value in the assay on rat is recorded as “improved kidney function”.
In the case of `Nc1cccc2cnccc12` [5-aminoisoquinoline], in the assay on rats, the leukocyte-endothelial interaction result is “decreased leukocyte-endothelial interaction”, the liver function entry was “improved liver function” and the liver injury entry was “decreased liver injury”.
For the compound `Nc1ccc2oc(=O)ccc2c1I` [5-iodo-6-amino-1,2-benzopyrone], the “severity of the disease as assessed by histological parameters” value in the assay on mouse is reported as “reduced the severity of the disease”.
`NC(=O)c1cccc2[nH]c(C3c4ccccc4CCN3C(=O)OCc3ccccc3)nc12` (stereo not shown) [Benzyl 1-(4-carbamoyl-1H-benzo[d]imidazol-2-yl)-3,4-dihydroisoquinoline-2(1H)-carboxylate]: the pIC50 at human PARP-1 is under 5.70.
For `NC(=O)c1cccc2[nH]c(C3c4ccccc4CN3C(=O)OCc3ccccc3)nc12` (stereo not shown) [Benzyl 1-(4-carbamoyl-1H-benzo[d]imidazol-2-yl)isoindoline-2-carboxylate], the pIC50 at human PARP-1 is under 5.70.
Same read-out and setting: next, `NC(=O)c1cccc2[nH]c(C3Cc4ccccc4N3C(=O)OCc3ccccc3)nc12` (stereo not shown) [Benzyl 2-(4-carbamoyl-1H-benzo[d]imidazol-2-yl)indoline-1-carboxylate]: under 5.70.
`NC(=O)c1cccc2[nH]c(C3Cc4ccccc4CN3C(=O)OCc3ccccc3)nc12` (stereo not shown) [Benzyl 3-(4-carbamoyl-1H-benzo[d]imidazol-2-yl)-3,4-dihydroisoquinoline-2-(1H)-carboxylate]: the pIC50 on human PARP-1 is 5.70 to 6.30.
Same read-out and setting: then `CC1(c2nc3c(C(N)=O)cccc3[nH]2)Cc2ccccc2CN1C(=O)OCc1ccccc1` (stereo not shown) [Benzyl 3-(4-carbamoyl-1H-benzo[d]imidazol-2-yl)-3-methyl-3,4-dihydroisoquinoline-2(1H)-carboxylate], with under 5.70.
Turning to `CN(C)CC(=O)Nc1ccc2[nH]c(=O)c3ccccc3c2c1` [PJ34], in the assay with Mice, the “fibrinolysis stimulated by the ischemia-reperfusion” value is “no apparent affect” and the “steady state levels of a marker for neutrophil infiltration” value was “decrease steady state levels”. In addition, the renal mitochondrial activity entry with Mice (treated 1 hour before and immediately after ischemia) was “preserve renal mitochondrial activity”.
As for `CC[C@@]1(O)C(=O)OCc2c1cc1n(c2=O)Cc2cc3ccccc3nc2-1` [camptothecin], in the assay on PARP-1, the “activation of PARP-1” value is “four-fold activation”.
For the compound `COc1cc([C@@H]2c3cc4c(cc3[C@@H](O[C@@H]3O[C@@H]5CO[C@@H](C)O[C@H]5[C@H](O)[C@H]3O)[C@H]3COC(=O)[C@H]23)OCO4)cc(OC)c1O` [etoposide], in the assay with PARP-1, the “activation of PARP-1” value was “failed to induce PARP-1”.
As to `NC(=O)c1cccnc1` [nicotinamide], the “contraction of vascular smooth muscle cells in tumors” value in assay [1] is given as “inhibit contraction”.
Consider `CC(C)(C)OC(=O)N1c2ccccc2CCC1c1nc2c(C(N)=O)cccc2[nH]1` (stereo not shown) [tert-Butyl 2-(4-carbamoyl-1H-benzo[d]imidazol-2-yl)-3,4-dihydroquinoline-1(2H)-carboxylate], for which, on human PARP-1, the pIC50 was under 5.70.
As for `CC(C)(C)OC(=O)Nc1ccc2c(c1)CN(C(=O)OC(C)(C)C)C(c1nc3c(C(N)=O)cccc3[nH]1)C2` (stereo not shown) [tert-Butyl 7-((tert-butoxycarbonyl)amino)-3-(4-carbamoyl-1H-benzo[d]imidazol-2-yl)-3,4-dihydroisoquinoline-2(1H)-carboxylate], on human PARP-1, the pIC50 was under 5.70.
Take `CC(C)(C)OC(=O)N1Cc2cc(N)ccc2CC1c1nc2c(C(N)=O)cccc2[nH]1` (stereo not shown) [tert-Butyl 7-amino-3-(4-carbamoyl-1H-benzo[d]imidazol-2-yl)-3,4-dihydroisoquinoline-2(1H)-carboxylate]: the pIC50 at human PARP-1 was under 5.70.
Same read-out and setting: next, `CC(C)(C)OC(=O)Nc1ccc2c(c1)CNC(c1nc3c(C(N)=O)cccc3[nH]1)C2` (stereo not shown) [tert-Butyl (3-(4-carbamoyl-1H-benzo[d]imidazol-2-yl)-1,2,3,4-tetrahydroisoquinolin-7-yl)carbamates]: under 5.70.

By pIC50 is commonly meant the IC50 on a negative log10 scale, so that one unit is a factor of ten.
